In PMC12884720, “Gabpα‐Pparγ Complex Determines Glycolytic Capacity and Lactic Acid Homeostasis in Brown Fat” (Advanced Science, 2025):
Residues, ends and D or L forms follow the SMILES beside them. *: point of attachment. FITC = O=C1OC2(c3ccc(O)cc3Oc3cc(O)ccc32)c2ccc(NC(=S)*)cc21

Test system: differentiated iBAT‐SVF cells
Test: Lactate levels in differentiated iBAT-SVF cells
Type: cell-based, C57BL/6 mice
Conditions: GPCBi 5 µM
Experimental: Interscapular BAT‐SVF cells were obtained from eight‐week‐old male C57BL/6 mice. Briefly, BAT was excised, washed in PBS, minced, and digested at 37 °C for 40 min in Hanks solution containing type II collagenase (Sigma, Cat# C‐6885) and 4% bovine serum albumin (BSA). The tissue homogenates were filtered through a 70 µm cell strainer and centrifuged at 1000 rpm for 5 min. The cell pellet was resuspended in DMEM supplemented with 10% FBS (Sigma–Aldrich) and 1% penicillin/streptomycin (P/S) at 37 °C with 5% CO2. The next day, BAT‐SVF cells were immortalized with the SV40 large T antigen according to a published protocol.^[ [32] ^] For iBAT‐SVF cell differentiation, confluent SVF cells were induced to differentiate with medium containing 0.5 mM isobutylmethylxanthine (Sigma, Cat# I‐5879), 125 µM indomethacin (Sigma, Cat# I‐7378), 2 µg mL^−1 dexamethasone (Sigma, Cat# D‐1756), 5 µg mL^−1 insulin (Solarbio, Cat# I‐8040), 1 nM triiodo‐L‐thyronine (Sigma, Cat# T‐2877), and 1 µM rosiglitazone (Cayman, Cat# 71740‐100). After 48 h, the induction medium was replaced with a maintenance cocktail (5 µg mL^−1 insulin, 1 nM triiodo‐L‐thyronine, and 1 µM rosiglitazone) until 6 to 8 days after the induction of differentiation.
Brown fat was homogenized with lysis buffer, ultrasonographically treated on ice at 300 W (on for 3 s, off for 7 s) for 2 min, and then centrifuged at 4 °C at 12 000 × g for 10 min. […] All protocols were followed in accordance with the manufacturer's guidelines.

CC[C@H](C)[C@H](NC(=O)[C@H](CCCNC(=N)N)NC(=O)[C@H](CS)NC(=O)[C@H](CC(N)=O)NC(=O)[C@H](CC(C)C)NC(=O)[C@H](CC(=O)O)NC(=O)[C@H](CS)NC(=O)[C@H](CCCNC(=N)N)NC(=O)[C@H](CC(=O)O)NC(=O)[C@H](Cc1ccc(O)cc1)NC(=O)[C@@H](NC(=O)[C@H](CC(C)C)NC(=O)[C@H](CCCCN)NC(=O)[C@H](CC(C)C)NC(=O)[C@H](CCCNC(=N)N)NC(=O)[C@@H](NC(=O)[C@@H](NC(=O)[C@H](CCCNC(=N)N)NC(=O)[C@H](CCCNC(=N)N)NC(=O)[C@H](CCCNC(=N)N)NC(=O)[C@H](CCCNC(=N)N)NC(=O)[C@H](CCCNC(=N)N)NC(=O)[C@H](CCC(N)=O)NC(=O)[C@H](CCCNC(=N)N)NC(=O)[C@H](CCCNC(=N)N)NC(=O)[C@H](CCCCN)NC(=O)[C@H](CCCCN)NC(=O)[C@H](CCCNC(=N)N)NC(=O)CNC(=O)[C@H](Cc1ccc(O)cc1)NC(=S)Nc1ccc2c(c1)C(=O)OC21c2ccc(O)cc2Oc2cc(O)ccc21)[C@@H](C)O)[C@@H](C)CC)[C@@H](C)CC)C(=O)N[C@@H](Cc1c[nH]cn1)C(=O)N[C@@H](CCCCN)C(=O)N[C@@H](CCCCN)C(=O)N[C@@H](CO)C(=O)N[C@@H](CCCNC(=N)N)C(=O)N[C@@H](CC(N)=O)C(=O)N[C@@H](CCCCN)C(=O)O [GPCBi] ({FITC}-YGRKKRRQRRRRRTIRLKLIYDRCDLNCRIHKKSRNK-OH; N-terminus and C-terminus assumed)
intracellular lactate levels in brown adipocytes (first 2 days of adipogenic differentiation (Figure 5l)): decreased
lactate level in GPCBi‐treated brown adipocytes (first 2 days of adipogenic differentiation, versus scramble peptide, without Enoblock (Figure 5o)): reduced
